Data taken from patent publication US20240174679A1, “HETEROAROYL AMIDES AS LRRK2 INHIBITORS, PHARMACEUTICAL COMPOSITIONS, AND USES THEREOF” (MERCK SHARP & DOHME LLC, priority 2021, published 2024).

Target: GST tagged truncated human mutant G2019S LRRK2 (Homo sapiens (Human), UniProt Q5S007, G2019S)
Experiment: LRRK2 Km ATP LanthaScreen Assay
Format: biochemical
Conditions: 134 μM ATP (Km ATP), LRRKtide substrate, negative log of mean IC50 (molar); for IC50: read-out: LRRK2 pIC50 (converted)
Procedure: Unless otherwise noted, all reactions are magnetically stirred. Unless otherwise noted, when diethyl ether is used in the experiments described below, it is Fisher ACS certified material and is stabilized with BHT. Unless otherwise noted, “concentrated” and/or “solvent removed under reduced pressure” means evaporating the solvent from a solution or mixture using a rotary evaporator or vacuum pump. Unless otherwise noted, flash chromatography is carried out on a Teledyne Isco (Lincoln, NE), Analogix (Burlington, WI), or Biotage (Stockholm, SWE) automated chromatography system using a commercially available cartridge as the column. Columns may be purchased from Teledyne Isco, Analogix, Biotage, Varian (Palo Alto, CA), or Supelco (Bellefonte, PA) and are usually filled with silica gel as the stationary phase. Reversed phase preparative HPLC conditions, where used, can be found at the end of each experimental section. Aqueous solutions were concentrated on a Genevac (Ipswich, ENG) or by freeze-drying/lyophilization. Unless otherwise noted, all LRRK2 pIC50 data presented in tables refers to the LRRK2 G2019S Km ATP LanthaScreen™ assay (Life Technologies Corp., Carlsbad, CA) that is described in the Biological Assay section.
Biological Assay: LRRK2 Km ATP LanthaScreen™ Assay
Compound potency against LRRK2 kinase activity was determined using LanthaScreen™ technology from Life Technologies Corporation (Carlsbad, CA) using a GST20 tagged truncated human mutant G2019S LRRK2 in the presence of the fluorescein-labeled peptide substrate LRRKtide® (LRRK2 phosphorylated ezrin/radixin/moesin (ERM)), also from Life Technologies. The data presented for the Km ATP LanthaScreen™ Assay represents mean IC50 values based on several test results and may have reasonable deviations depending on the specific conditions and reagents used. Km is the Michaelis constant of an enzyme and is defined as the concentration of native substrate (ATP for a kinase) which permits the enzyme to achieve half Vmax (Vmax=rate of reaction when the enzyme is saturated with substrate). IC50 (half-maximal inhibitory concentration) represents the concentration of inhibitor required to inhibit LRRK2 kinase activity by 50%. Assays were performed in the presence of 134 μM ATP (Km ATP). Upon completion, the assay was stopped, and phosphorylated substrate detected with a terbium (Tb)-labeled anti-pERM antibody (cat. no. PV4898). The compound dose response was prepared by diluting a 10 mM stock of compound to a maximum concentration of 9.99 μM in 100% DMSO, followed by custom fold serial dilution in DMSO nine times. 20 nL of each dilution was spotted via a Labcyte Echo onto a 384-well black-sided plate (Corning 3575) followed by 15 μL of a 1.25 nM enzyme solution in 1× assay buffer (50 mM Tris pH 8.5, 10 mM MgCl2, 0.01% Brij-35, 1 mM EGTA, 2 mM dithiothreitol, 0.05 mM sodium orthovanadate). Following a 15-min incubation period at rt, the kinase reaction was started with the addition of 5 μL of 400 nM fluorescein-labeled LRRKtide® (LRRK2 phosphorylated ezrin/radixin/moesin (ERM)) peptide substrate and 134 μM ATP solution in 1× assay buffer. The reaction was allowed to progress at ambient temperature for 90 min. The reaction was then stopped by the addition of 20 μL of TR-FRET Dilution Buffer (Life Technologies, Carlsbad, CA) containing 2 nM Tb-labeled anti-phospho LRRKtide® (LRRK2 phosphorylated ezrin/radixin/moesin (ERM)) antibody and 10 mM EDTA (Life Technologies, Carlsbad, CA). After an incubation period of 1 h at rt, the plate was read on an EnVision® multimode plate reader (Perkin Elmer, Waltham, MA) with an excitation wavelength of 337 nm (Laser) and a reading emission at both 520 and 495 nm. Compound IC50 values were interpolated from nonlinear regression best-fits of the log of the final compound concentration, plotted as a function of the 520/495-nm emission ratio using activity base “Abase”). Abase uses a 4 parameter (4P) logistic fit based on the Levenberg-Marquardt algorithm. […]

Sequence of GST tagged truncated human mutant G2019S LRRK2 (Q5S007 970-2527 G2019S): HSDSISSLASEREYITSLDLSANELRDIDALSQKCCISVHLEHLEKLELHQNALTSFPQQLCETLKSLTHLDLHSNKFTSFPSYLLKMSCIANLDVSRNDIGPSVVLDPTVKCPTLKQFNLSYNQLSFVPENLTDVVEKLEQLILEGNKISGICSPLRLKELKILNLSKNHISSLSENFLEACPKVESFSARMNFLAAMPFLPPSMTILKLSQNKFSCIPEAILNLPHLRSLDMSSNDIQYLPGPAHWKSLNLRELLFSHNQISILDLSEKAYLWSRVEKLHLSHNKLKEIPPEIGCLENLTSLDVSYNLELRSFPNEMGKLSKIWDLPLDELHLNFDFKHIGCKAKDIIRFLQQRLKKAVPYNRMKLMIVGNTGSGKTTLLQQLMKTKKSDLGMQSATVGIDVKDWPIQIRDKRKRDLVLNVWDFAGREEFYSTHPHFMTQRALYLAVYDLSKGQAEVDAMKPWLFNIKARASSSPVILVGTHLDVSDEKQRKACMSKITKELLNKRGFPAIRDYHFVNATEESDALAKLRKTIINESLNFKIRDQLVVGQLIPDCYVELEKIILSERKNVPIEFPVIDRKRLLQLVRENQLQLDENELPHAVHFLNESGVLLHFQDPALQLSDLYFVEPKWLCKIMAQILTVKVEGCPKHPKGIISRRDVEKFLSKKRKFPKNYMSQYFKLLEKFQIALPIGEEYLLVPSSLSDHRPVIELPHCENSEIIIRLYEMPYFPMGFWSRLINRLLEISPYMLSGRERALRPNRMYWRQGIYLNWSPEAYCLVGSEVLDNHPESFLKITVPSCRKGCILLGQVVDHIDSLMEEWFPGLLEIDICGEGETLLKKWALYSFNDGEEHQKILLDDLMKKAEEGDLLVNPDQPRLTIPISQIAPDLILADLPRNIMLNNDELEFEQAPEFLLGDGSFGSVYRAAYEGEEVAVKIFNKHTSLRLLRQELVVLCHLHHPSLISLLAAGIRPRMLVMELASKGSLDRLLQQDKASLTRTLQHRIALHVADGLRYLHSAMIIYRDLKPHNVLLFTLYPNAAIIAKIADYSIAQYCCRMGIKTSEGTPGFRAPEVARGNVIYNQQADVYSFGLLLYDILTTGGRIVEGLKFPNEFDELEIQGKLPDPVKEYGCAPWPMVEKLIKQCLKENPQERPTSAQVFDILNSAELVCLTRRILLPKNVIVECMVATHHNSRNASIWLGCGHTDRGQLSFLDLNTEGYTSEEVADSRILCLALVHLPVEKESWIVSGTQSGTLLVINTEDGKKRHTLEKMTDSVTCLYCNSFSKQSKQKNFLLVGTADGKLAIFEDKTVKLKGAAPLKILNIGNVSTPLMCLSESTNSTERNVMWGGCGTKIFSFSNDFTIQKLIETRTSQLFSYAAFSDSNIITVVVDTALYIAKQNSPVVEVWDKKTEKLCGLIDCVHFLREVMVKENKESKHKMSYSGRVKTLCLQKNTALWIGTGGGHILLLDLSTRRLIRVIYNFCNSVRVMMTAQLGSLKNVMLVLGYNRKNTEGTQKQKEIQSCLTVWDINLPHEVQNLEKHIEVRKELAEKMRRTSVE

Row | SMILES | IC50 [nM] | LRRK2 pIC50
1 | CC(C1CC1)n1cc(NC(=O)c2csc(-c3cn[nH]c3)n2)cn1 (single isomer, unassigned) [Example 2-1, (R)- or (S)—N-(1-(1-cyclopropylethyl)-1H-pyrazol-4-yl)-2-(1H-pyrazol-4-yl)thiazole-4-carboxamide] | 32.4 | –
2 | CC(C1CC1)n1cc(NC(=O)c2csc(-c3cn[nH]c3)n2)cn1 (single isomer, unassigned) [Example 2-2, (S)- or (R)—N-(1-(1-cyclopropylethyl)-1H-pyrazol-4-yl)-2-(1H-pyrazol-4-yl)thiazole-4-carboxamide] | 38 | –
3 | Cc1nn(C(C)C2CC2)cc1NC(=O)c1csc(-c2cn[nH]c2)n1 (single isomer, unassigned) [Example 2-3, (R)- or (S)-N-{1-[1-cyclopropylethyl]-3-methyl-1H-pyrazol-4-yl}-2-(1H-pyrazol-4-yl)-1,3-thiazole-4-carboxamide] | – | 6.99
4 | Cc1nn(C(C)C2CC2)cc1NC(=O)c1csc(-c2cn[nH]c2)n1 (single isomer, unassigned) [Example 2-4, (S)- or (R)-N-{1-[1-cyclopropylethyl]-3-methyl-1H-pyrazol-4-yl}-2-(1H-pyrazol-4-yl)-1,3-thiazole-4-carboxamide] | – | 6.82
5 | CC(C1CC1)n1ncc(NC(=O)c2csc(-c3cn[nH]c3)n2)c1C(F)F (single isomer, unassigned) [Example 3-4, (R)- or (S)—N-(1-(1-cyclopropylethyl)-5-(difluoromethyl)-1H-pyrazol-4-yl)-2-(1H-pyrazol-4-yl)thiazole-4-carboxamide] | – | 5.69
6 | CC(C1CC1)n1ncc(NC(=O)c2csc(-c3cn[nH]c3)n2)c1C(F)F (single isomer, unassigned) [Example 3-5, (S)- or (R)—N-(1-(1-cyclopropylethyl)-5-(difluoromethyl)-1H-pyrazol-4-yl)-2-(1H-pyrazol-4-yl)thiazole-4-carboxamide] | – | 5.92
7 | O=C(Nc1cnn(C2CCC2)c1)c1csc(-c2cn[nH]c2)n1 [Example 1-1, N-(1-Cyclobutyl-1H-pyrazol-4-yl)-2-(1H-pyrazol-4-yl)thiazole-4-carboxamide] | – | 8.01
8 | COc1nn(CC(F)(F)F)cc1NC(=O)c1csc(-c2cn[nH]c2)n1 [Example 1-2, N-(3-Methoxy-1-(2,2,2-trifluoroethyl)-1H-pyrazol-4-yl)-2-(1H-pyrazol-4-yl)thiazole-4-carboxamide] | – | 7.46
9 | Cc1nn(C2CCC2)cc1NC(=O)c1csc(-c2cn[nH]c2)n1 [Example 1-3, N-(1-Cyclobutyl-3-methyl-1H-pyrazol-4-yl)-2-(1H-pyrazol-4-yl)thiazole-4-carboxamide] | – | 7.83
10 | CNC(=O)c1nn(C)cc1NC(=O)c1csc(-c2cn[nH]c2)n1 [Example 1-4, N-[1-methyl-3-(methylcarba-moyl)-1H-pyrazol-4-yl]-2-(1H-pyrazol-4-yl)-1,3-thiazole-4-carboxamide] | – | 8.15
11 | Cc1nn(C(F)F)cc1NC(=O)c1csc(-c2cn[nH]c2)n1 [Example 1-5, N-[1-(difluoromethyl)-3-methyl-1H-pyrazol-4-yl]-2-(1H-pyrazol-4-yl)-1,3-thiazole-4-carboxamide] | – | 7.08
12 | O=C(Nc1cn(C2CC2)nc1C1CC1)c1csc(-c2cn[nH]c2)n1 [Example 1-6, N-(1,3-dicyclopropyl-1H-pyrazol-4-yl)-2-(1H-pyrazol-4-yl)-1,3-thiazole-4-carboxamide] | – | 7.84
13 | CC(C)n1cc(NC(=O)c2csc(-c3cn[nH]c3)n2)c(OCC(F)(F)F)n1 [Example 1-7, N-[1-(1-methylethyl)-3-(2,2,2-trifluoroethoxy)-1H-pyrazol-4-yl]-2-(1H-pyrazol-4-yl)-1,3-thiazole-4-carboxamide] | – | 7.17
